Experiment [1] has as its target T1, GSTO1 (Homo sapiens, UniProt P78417).
T1 sequence (P78417 1-241): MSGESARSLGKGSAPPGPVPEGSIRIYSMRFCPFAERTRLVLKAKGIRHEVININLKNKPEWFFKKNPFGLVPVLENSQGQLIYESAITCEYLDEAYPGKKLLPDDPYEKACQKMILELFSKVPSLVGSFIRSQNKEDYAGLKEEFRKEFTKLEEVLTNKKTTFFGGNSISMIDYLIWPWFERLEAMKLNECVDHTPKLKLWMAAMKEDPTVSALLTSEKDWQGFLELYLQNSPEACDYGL
Briefly: In-gel fluorescence competitive CMFDA binding assay, recombinant GSTO1. Conditions: inhibition of CMFDA binding.
Source text: (§1) Primary screening of GSTO inhibitors was based on competitive inhibition of CMFDA binding to endogenous GSTO. Briefly, HCT116^p53+/+ cells (4 × 10^4 per well) were coated in a 12-well plate. […] Cells were then washed with PBS and lysed using Cell Lytic M buffer (Sigma). […] Gels were immediately scanned on a Typhoon variable mode imager (Amersham Bioscience). Quantification of fluorescent band intensity was done using Image Quant 5.2 software.

Experiment [2] concerns the target T2, endogenous GSTO1 (Homo sapiens, UniProt P78417).
T2 sequence (P78417 1-241): T1 sequence (P78417 1-241)
As to the kind of experiment: In-gel fluorescence competitive CMFDA binding assay, endogenous GSTO1 in HCT116. To be noted: 10 µM; inhibition of CMFDA binding, HCT116.
Source text: as §1

The target in experiment [3] is T1, GSTO1. Briefly: GSTO1 substrate assay (reduction of 4-NPG). To be noted: for IC50: read-out: GSTO substrate assay IC50, cluster screening tables.
Procedure: For activity screening, we adapted a GSTO1 substrate assay that relies on the quantification of the reduction of S-(4-nitrophenacyl)glutathione (4-NPG), a GSTO1-specific substrate[17], using recombinant human GSTO1 in a high-throughput screening format.
Enzyme activity was measured by monitoring the reduction of 4-NPG to 4-nitroacetophenone by GSTO1.
The subject of experiment [4] is HCT116p53+/+ cell. As to the kind of experiment: MTT cell proliferation at single concentration. In kind it is cell-based, human. The method, boiled down:
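Cancer cells attached overnight, exposed to GSTO1 inhibitors for 72 h, then MTT added for 3 h at 37 °C; formazan dissolved in DMSO, absorbance read at 570 nm. At least three independent dose–response experiments, triplicate per concentration.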

Several values for one entry are separate records, joined by “and”; a condition that tells them apart may be missing. Equal entries are not always repeated.

Take `O=C(CCl)NCC1COc2ccccc2O1` (centres unmarked) [C3-9]: the “GSTO binding assay (% Inhibition at 10 µM) Recombinant” value in experiment [1] was 30.7%. Moreover, in experiment [2], the “GSTO binding assay (% Inhibition at 10 µM) Endogenous” value was found to be 53.9%. Besides, the “GSTO substrate assay % Inhibition at 10 µM” value in experiment [3] was found to be 80.7%. The “% Inhibition of HCT116p53+/+ cell proliferation at 10 µM” value in experiment [4] is given as 24.9%.
For `Cc1c(NC(=O)c2c(NC(=O)CCl)sc3c2CCCC3)c(=O)n(-c2ccccc2)n1C` [C2-19], in experiment [1], the “GSTO binding assay (% Inhibition at 10 µM) Recombinant” value was determined as 51.8%. For the same compound, the “GSTO binding assay (% Inhibition at 10 µM) Endogenous” value in experiment [2] stood at 58.6%. For the same compound, in experiment [3], the “GSTO substrate assay % Inhibition at 10 µM” value stood at 1.2%. For the same compound, the “% Inhibition of HCT116p53+/+ cell proliferation at 10 µM” value in experiment [4] was 52.7% and 40.5%.
Consider `C=CCN(C(=O)CCl)c1nc(-c2ccc(Cl)c(Cl)c2)cs1` [C4-5], for which the “GSTO binding assay (% Inhibition at 10 µM) Recombinant” value in experiment [1] is reported as -8.2%. Moreover, the “GSTO binding assay (% Inhibition at 10 µM) Endogenous” value in experiment [2] is recorded as 15.9%. In addition, in experiment [3], the “GSTO substrate assay % Inhibition at 10 µM” value worked out at 5.0%. The “% Inhibition of HCT116p53+/+ cell proliferation at 10 µM” value in experiment [4] was 9.9% and 16.9%.
In the case of `CC(C)C(NC(=O)CCl)c1cccs1` (centres unmarked) [C3-28], the “GSTO binding assay (% Inhibition at 10 µM) Recombinant” value in experiment [1] is on record as 15.1%. Further, in experiment [2], the “GSTO binding assay (% Inhibition at 10 µM) Endogenous” value came out at 44.1%. The “GSTO substrate assay % Inhibition at 10 µM” value in experiment [3] was 42.0%. Besides, the “% Inhibition of HCT116p53+/+ cell proliferation at 10 µM” value in experiment [4] was 48.5% and 48.7%.
As for `COc1cc(NC(=O)CCl)c(Cl)cc1C(=O)O` [C1-10], the “GSTO binding assay (% Inhibition at 10 µM) Recombinant” value in experiment [1] is recorded as 49.1%. Besides, in experiment [2], the “GSTO binding assay (% Inhibition at 10 µM) Endogenous” value came to 49.7%. For the same compound, the “GSTO substrate assay % Inhibition at 10 µM” value in experiment [3] was 81.7%. Moreover, the “% Inhibition of HCT116p53+/+ cell proliferation at 10 µM” value in experiment [4] is recorded as 19.7%.
For `CN(CC(=O)Nc1c(Cl)cccc1Cl)C(=O)CCl` [C4-7] the same measures were -36.4%, 53.0%, 1.8% and 81.8%.
For the compound `CC(C)C(NC(=O)CCl)c1ccc2c(c1)OCCO2` (centres unmarked) [C3-8], the “GSTO binding assay (% Inhibition at 10 µM) Recombinant” value in experiment [1] was -4.9%. Moreover, in experiment [2], the “GSTO binding assay (% Inhibition at 10 µM) Endogenous” value is recorded as 33.4%. The “GSTO substrate assay % Inhibition at 10 µM” value in experiment [3] is listed as 16.5%. For the same compound, in experiment [4], the “% Inhibition of HCT116p53+/+ cell proliferation at 10 µM” value is 91.2% and 77.9%.
As a reminder, the IC50 is the midpoint of a concentration-inhibition curve. As to `NC(=O)C1CN(C(=O)CCl)c2ccccc2O1` (centres unmarked) [C5-24], the “GSTO binding assay (% Inhibition at 10 µM) Recombinant” value in experiment [1] is given as 54.9%. Besides, the “GSTO binding assay (% Inhibition at 10 µM) Endogenous” value in experiment [2] is reported as 69.2%. In experiment [3], the “GSTO substrate assay % Inhibition at 10 µM” value was 83.7% and the 50% inhibitory concentration (IC50) was 4.11 µM. Moreover, the “% Inhibition of HCT116p53+/+ cell proliferation at 10 µM” value in experiment [4] is 79.8% and 87.3%.
Take `N#CC(c1cccs1)N1CCN(C(=O)CCl)CC1` (centres unmarked) [C5-11]: the “GSTO binding assay (% Inhibition at 10 µM) Recombinant” value in experiment [1] is on record as 57.7%. The “GSTO binding assay (% Inhibition at 10 µM) Endogenous” value in experiment [2] is 62.9%. The “GSTO substrate assay % Inhibition at 10 µM” value in experiment [3] turned out to be 5.7%. In experiment [4], the “% Inhibition of HCT116p53+/+ cell proliferation at 10 µM” value is given as 19.6%.
Taken in the same sequence, the figures for `CCOC(=O)c1c(NC(=O)CCl)sc(Cl)c1-c1ccccc1` [C2-9] were 50.0%, 59.2%, 13.9% and 16.3%.
For the compound `O=C(CCl)NNC(=O)c1ccc(Br)cc1` [C3-21], the “GSTO binding assay (% Inhibition at 10 µM) Recombinant” value in experiment [1] was 58.4%. Further, the “GSTO binding assay (% Inhibition at 10 µM) Endogenous” value in experiment [2] is 27.6%. The “GSTO substrate assay % Inhibition at 10 µM” value in experiment [3] amounted to 81.3%. Besides, in experiment [4], the “% Inhibition of HCT116p53+/+ cell proliferation at 10 µM” value was determined as 9.9%.
Taken in the same sequence, the figures for `O=C(CCl)N1CCN(c2ccccc2F)CC1` [C5-3] were 9.4%, 61.5%, 59.8% and 28.2%.
For `CC(NC(=O)CCl)c1ccc2c(c1)OCO2` (centres unmarked) [C3-7] the same measures were 12.3%, 12.6%, 12.5% and 73.6%.
Turning to `COc1ccc(C2=NN(C(=O)CCl)C(c3cccc(OC)c3OC)C2)cc1` (centres unmarked) [C5-21], the “GSTO binding assay (% Inhibition at 10 µM) Recombinant” value in experiment [1] stood at 65.0%. For the same compound, the “GSTO binding assay (% Inhibition at 10 µM) Endogenous” value in experiment [2] is reported as 28.9%. The “GSTO substrate assay % Inhibition at 10 µM” value in experiment [3] worked out at 40.0%. The “% Inhibition of HCT116p53+/+ cell proliferation at 10 µM” value in experiment [4] was 78.2% and 83.6%.
On to `NC(=O)CCN(Cc1ccccc1)C(=O)CCl` [C4-14], for which the “GSTO binding assay (% Inhibition at 10 µM) Recombinant” value in experiment [1] worked out at 45.2%. In experiment [2], the “GSTO binding assay (% Inhibition at 10 µM) Endogenous” value was determined as 56.8%. The “GSTO substrate assay % Inhibition at 10 µM” value in experiment [3] turned out to be 89.1%. The “% Inhibition of HCT116p53+/+ cell proliferation at 10 µM” value in experiment [4] was 70.3% and 75%.
Consider `O=C(CCl)N1CCN(S(=O)(=O)C=Cc2ccccc2)CC1` [C5-16], for which the “GSTO binding assay (% Inhibition at 10 µM) Recombinant” value in experiment [1] worked out at 82.7%. Moreover, the “GSTO binding assay (% Inhibition at 10 µM) Endogenous” value in experiment [2] came to 61.7%. Also, the “GSTO substrate assay % Inhibition at 10 µM” value in experiment [3] stood at 2.4%. In experiment [4], the “% Inhibition of HCT116p53+/+ cell proliferation at 10 µM” value was 48.3% and 46.5%.
In the case of `O=C(CCl)N(CC(F)(F)F)c1ccc(Cl)cc1` [C4-1], the “GSTO binding assay (% Inhibition at 10 µM) Recombinant” value in experiment [1] came out at 40.4%. In experiment [2], the “GSTO binding assay (% Inhibition at 10 µM) Endogenous” value was 58.5%. Besides, in experiment [3], the “GSTO substrate assay % Inhibition at 10 µM” value worked out at 73.0% and the 50% inhibitory concentration (IC50) was 3.8 µM. The “% Inhibition of HCT116p53+/+ cell proliferation at 10 µM” value in experiment [4] was 76.2% and 81.4%.
In the case of `O=C(CCl)Nc1cc(C(F)(F)F)ccc1N1CCCC1` [C1-17], in experiment [1], the “GSTO binding assay (% Inhibition at 10 µM) Recombinant” value is recorded as -4.1%. Further, in experiment [2], the “GSTO binding assay (% Inhibition at 10 µM) Endogenous” value was -9.5%. Also, in experiment [3], the “GSTO substrate assay % Inhibition at 10 µM” value was 88.5%. In addition, the “% Inhibition of HCT116p53+/+ cell proliferation at 10 µM” value in experiment [4] was 94.8% and 91%.
For `O=C(CCl)N(Cc1ccccc1)Cc1ccco1` [C4-15], the “GSTO binding assay (% Inhibition at 10 µM) Recombinant” value in experiment [1] is recorded as 65.8%. The “GSTO binding assay (% Inhibition at 10 µM) Endogenous” value in experiment [2] is listed as 34.0%. In experiment [3], the “GSTO substrate assay % Inhibition at 10 µM” value worked out at 98.2%. Moreover, in experiment [4], the “% Inhibition of HCT116p53+/+ cell proliferation at 10 µM” value was -6.8% and -5.5%.
Regarding `CN(Cc1cnn(-c2ccccc2)c1)C(=O)CCl` [C4-10], in experiment [1], the “GSTO binding assay (% Inhibition at 10 µM) Recombinant” value turned out to be 66.4%. Also, in experiment [2], the “GSTO binding assay (% Inhibition at 10 µM) Endogenous” value amounted to 53.1%. In experiment [3], the “GSTO substrate assay % Inhibition at 10 µM” value worked out at 99.5% and the IC50 was 1.95 µM. In addition, in experiment [4], the “% Inhibition of HCT116p53+/+ cell proliferation at 10 µM” value stood at 82.1%.
For the compound `Cc1cc(NC(=O)CCl)ccc1N1CCCC1` [C1-16], the “GSTO binding assay (% Inhibition at 10 µM) Recombinant” value in experiment [1] worked out at 49.2%. The “GSTO binding assay (% Inhibition at 10 µM) Endogenous” value in experiment [2] is on record as 46.7%. Further, the “GSTO substrate assay % Inhibition at 10 µM” value in experiment [3] is 87.8%. In experiment [4], the “% Inhibition of HCT116p53+/+ cell proliferation at 10 µM” value came to 41.9%.
As for `Cc1cccc(C(O)(C(=O)NN(C(=O)CCl)C2CCCCC2)c2cccc(C)c2)c1` [C4-21], in experiment [1], the “GSTO binding assay (% Inhibition at 10 µM) Recombinant” value was 9.8%. Further, in experiment [2], the “GSTO binding assay (% Inhibition at 10 µM) Endogenous” value is given as 20.6%. For the same compound, in experiment [3], the “GSTO substrate assay % Inhibition at 10 µM” value is given as 23.3%. For the same compound, in experiment [4], the “% Inhibition of HCT116p53+/+ cell proliferation at 10 µM” value was 50.6% and 54.9%.
As to `O=C(CCl)N(NC(=O)P(=O)(N1CCOCC1)N1CCOCC1)c1ccc(Br)cc1` [C4-20], the “GSTO binding assay (% Inhibition at 10 µM) Recombinant” value in experiment [1] is listed as 9.3%. Also, the “GSTO binding assay (% Inhibition at 10 µM) Endogenous” value in experiment [2] was 27.6%. For the same compound, the “GSTO substrate assay % Inhibition at 10 µM” value in experiment [3] was -7.3%. The “% Inhibition of HCT116p53+/+ cell proliferation at 10 µM” value in experiment [4] was 10.4% and 6.3%.

For the origin of these results see paper PMC5059489, “Mechanistic evaluation and transcriptional signature of a glutathione S-transferase omega 1 inhibitor” (Nature Communications, 2016).
